The values that follow come from patent publication US8754259B2, “Synthesis of cyclohexane derivatives useful as sensates in consumer products” (The Proctor & Gamble Company, priority 2008, dated 2014).

Series [1] is described as follows: Sensory studies of coolant activity (G-180 and neoisomer vs menthol). It is filed as in vivo, human. To be noted: for burning sensation: sensory evaluations by panelists. Here is the method: The coolant properties of the materials prepared according to the present methods are evaluated using sensory studies. […] By contrast, both the G-180 and neoisomer materials provided a sensation that lasted longer than about 15 minutes. The cooling potency of the neoisomer is particularly unexpected, since stereochemistry is a major factor influencing coolant activity and potency for menthol and menthol derivatives as reported in previous studies. [See for example, R. Emberger and R. Hopp (1987), Specialty Chemicals, 7(3), 193-201; R. Eccles (1990), Chemical Senses, 2, 275-291; S. Rovner (2007), Chemical & Engineering News, 85(39), 95-98]. […] The effect on activity of these isomers is far more significant than is observed with menthol.
Sensory evaluation studies of coolant activity may be conducted using a methodology patterned after the techniques described in M. C. Meilgaard, et al., Sensory Evaluation Techniques, 4th Ed. (2007). A panel of trained sensory experts evaluates cooling sensation experienced after using a product with coolant, for example by brushing with a dentifrice or rinsing with an aqueous rinse. In one protocol, panelists brush teeth with 1.5 grams of a test dentifrice (containing coolant) or control (no coolant) and then expectorate. After brush expectoration, panelists evaluate cooling intensity, assigning a number between 0 (no cooling) to 60 (intense cooling). In a rinse protocol, panelists rinse mouth with 15 ml. of an aqueous rinse and expectorate. After rinse expectoration, panelists evaluate cooling intensity according to the same 0 to 60 scale. Evaluations are conducted various time points, for example, at 5, 15, 30, 45, 60 minute, etc. At each evaluation, panelists are instructed to breathe in through pursed lips and evaluate overall cooling sensation. In this test, a numerical score of 7.5 indicates meaningful or definite cooling.

The conditions of series [2]: concentration where the cooling effect could be clearly recognized; cited from earlier work.
Series [3] can be described thus: Cooling rating of test dentifrices relative to control dentifrice, panelists n=9. It is filed as in vivo, human. As to conditions: for Cooling Rating Relative to Control: control = 60 on 1-90 scale; for cooling power compared to l-menthyl lactate: in words, dentifrice panel test, 60 minute period. Here is the method: The neo-coolants synthesized according to the routes outlined herein were tested to rate their cooling power compared with the corresponding l-isomers (commercially available samples) using the following protocol. Control and test coolants were formulated into a dentifrice at various levels according to the following formula.
Panelists (n=9) were instructed to brush for 30 seconds with a control dentifrice (containing a mixture of coolants 1500 ppm l-WS-3, 3000 ppm Menthol, 3000 ppm MGA and 1000 ppm WS-23), expectorate, and assign the control dentifrice a cooling rating of 60 on a 1-90 scale. The panelists were then given the test dentifrices in random order and instructed to brush and rate each sample relative to the control over a 60-minute period. Cooling ratings relative to control are summarized below.

The mark [4] stands for this setting: 0 min, 500 ppm coolant in dentifrice.
[5] abbreviates: 15 min, 500 ppm coolant in dentifrice.
Setting [6] is: 30 min, 500 ppm coolant in dentifrice.
Where [7] appears, read: 45 min, 500 ppm coolant in dentifrice.
Where [8] appears, read: 60 min, 500 ppm coolant in dentifrice.
Setting [9] is: 0 min, 1500 ppm coolant in dentifrice.
Setting [10] is: 15 min, 1500 ppm coolant in dentifrice.
Setting [11] is: 30 min, 1500 ppm coolant in dentifrice.
Setting [12] is: 45 min, 1500 ppm coolant in dentifrice.
Where [13] appears, read: 60 min, 1500 ppm coolant in dentifrice.

In general, melting point refers to the temperature, or range, at which the solid turns liquid.

Take `CC(C)[C@@H]1CC[C@@H](C)C[C@H]1C(=O)Nc1ccc(CC#N)cc1` [G-180, N-[4-(cyanomethyl)phenyl]-(1R,2S,5R)-2-isopropyl-5-methylcyclohexanecarboxamide, reference compound]: the burning sensation entry in series [1] is ““burning” sensation especially when used at fairly high levels”.

As for `CC(C)[C@@H]1CC[C@@H](C)C[C@H]1O` [L-menthol, l-menthol, reference compound], in series [1] (sensory studies), the “course of cooling sensation after use” value is on record as “drops sharply within a few minutes after use”. Further, in series [2], the cooling threshold result is reported as “about 800 ppb”.

`CC(C)[C@@H]1CC[C@@H](C)C[C@@H]1C(=O)Nc1ccc(CC#N)cc1` [Neo-G-180, N-[4-(cyanomethyl)phenyl]-(1S,2S,5R)-2-isopropyl-5-methylcyclohexanecarboxamide] displayed a melting point of 167 to 169 °C. Moreover, in series [1] (in vivo), the cooling properties result is recorded as “excellent cooling properties”. In series [1], the burning sensation result is reported as “significantly less of the “burning” sensation”.

Turning to `CC1CCC(C(C)C)C(OC(=O)C(C)O)C1` [Neo-Menthyl lactate (2S)], the “Cooling Rating Relative to Control” value was determined as 62.2 in series [3] (setting [4]); 43.9 in series [3] (setting [5]); 33.9 in series [3] (setting [6]); 27.5 in series [3] (setting [7]); 16.7 in series [3] (setting [8]). The “cooling power compared to l-menthyl lactate” value in series [3] was “very strong initial cooling as well as over the 60 minute time period”.

As to `CC(=O)O[C@@H](C)C(=O)O[C@H]1C[C@H](C)CC[C@H]1C(C)C` [Neo-Menthyl lactate acetate (2S), (1S,2S,5R)-2-isopropyl-5-methylcyclohexyl-2(S)-acetoxypropanoate], the “Cooling Rating Relative to Control” value is 64.4 in series [3] (0 min, 335 ppm coolant in dentifrice); 46.3 in series [3] (15 min, 335 ppm coolant in dentifrice); 33.1 in series [3] (30 min, 335 ppm coolant in dentifrice); 26.3 in series [3] (45 min, 335 ppm coolant in dentifrice); 21.3 in series [3] (60 min, 335 ppm coolant in dentifrice). In series [3], the “cooling power compared to l-menthyl lactate” value is on record as “very strong initial cooling as well as over the 60 minute time period”.

Consider `CC(=O)C(=O)OC1CC(C)CCC1C(C)C` (stereo not shown) [Neo-Menthyl pyruvate], for which the “Cooling Rating Relative to Control” value in series [3] (0 min, 1000 ppm coolant in dentifrice) was 57.8; in series [3] (15 min, 1000 ppm coolant in dentifrice), 45.0; in series [3] (30 min, 1000 ppm coolant in dentifrice), 30.6; in series [3] (45 min, 1000 ppm coolant in dentifrice) it was 21.1; in series [3] (60 min, 1000 ppm coolant in dentifrice) it was 16.1.

`CCNC(=O)[C@H]1C[C@H](C)CC[C@H]1C(C)C` [Neo-WS-3]: the “Cooling Rating Relative to Control” value is 43.3 in series [3] (setting [9]); 33.9 in series [3] (setting [10]); 23.3 in series [3] (setting [11]); 16.7 in series [3] (setting [12]); 13.3 in series [3] (setting [13]).

Consider `CCOC(=O)CNC(=O)[C@H]1C[C@H](C)CC[C@H]1C(C)C` [NeoWS-5], for which the “Cooling Rating Relative to Control” value stood at 61.9 in series [3] (setting [9]); 39.3 in series [3] (setting [10]); 29.3 in series [3] (setting [11]); 21.4 in series [3] (setting [12]); 15.7 in series [3] (setting [13]).

`CC(C)[C@@H]1CC[C@@H](C)C[C@@H]1O` [d-neomenthol]: in series [2], the cooling threshold result is given as “about 25,000 ppb”.

As to `CC(C)[C@@H]1CC[C@@H](C)C[C@H]1OC(=O)[C@H](C)O` [l-Menthyl lactate (2S), reference compound], the “Cooling Rating Relative to Control” value is reported as 50.0 in series [3] (setting [4]); 38.0 in series [3] (setting [5]); 26.5 in series [3] (setting [6]); 18.5 in series [3] (setting [7]); 13.5 in series [3] (setting [8]).

As for `CCNC(=O)C1CC(C)CCC1C(C)C` (stereo not drawn) [l-WS-3, N-ethyl-ρ-menthan-3-carboxamide, reference compound], the “Cooling Rating Relative to Control” value in series [3] (setting [9]) worked out at 53.5; in series [3] (setting [10]), 36.5; in series [3] (setting [11]) it was 27.0; in series [3] (setting [12]), 20.5; in series [3] (setting [13]), 15.5.

On to `CCOC(=O)CNC(=O)C1CC(C)CCC1C(C)C` (stereo not drawn) [l-WS-5, N-ethoxycarbonylmethyl-ρ-menthan-3-carboxamide, reference compound], for which the “Cooling Rating Relative to Control” value in series [3] (setting [9]) came out at 53.9; in series [3] (setting [10]), 40.0; in series [3] (setting [11]), 26.7; in series [3] (setting [12]) it was 17.8; in series [3] (setting [13]), 13.3.

In the case of `CC(C)[C@H]1CC[C@H](C)C[C@H]1O` [l-neomenthol], in series [2], the cooling threshold result is listed as “about 3,000 ppb”.

For “Neo-Menthyl lactate [Neo-Menthyl lactate (~2:1 S:R)]”, the “Cooling Rating Relative to Control” value in series [3] (0 min, 1950 ppm coolant in dentifrice) came out at 50.6; in series [3] (15 min, 1950 ppm coolant in dentifrice), 42.8; in series [3] (30 min, 1950 ppm coolant in dentifrice), 30.6; in series [3] (45 min, 1950 ppm coolant in dentifrice), 22.2; in series [3] (60 min, 1950 ppm coolant in dentifrice) it was 16.7.
